# Reference: patent US12173088B2, “Anti-microbial peptides” (priority 2018, dated 2024)
# Read-outs that look alike come from different tables or passages of the source. Square brackets hold non-standard residues; d marks the D form. Peptide text beside a SMILES is read from it.
# Tests used:
# P. aeruginosa PAO1 = type: cell-based, Pseudomonas aeruginosa; details: PAO1
# Outline: (§1)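 Broth microdilution in tryptic soy broth: log-phase cultures (OD600 ≈0.5) diluted to OD600 0.001, given two-fold peptide dilutions, incubated overnight at 37° C. Growth read at 630 nm.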
# E. coli ATCC 25922 = type: cell-based, Escherichia coli; details: ATCC 25922
# Outline: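 Broth microdilution: log-phase E. coli diluted to OD600 0.001 and exposed to two-fold serial peptide dilutions overnight at 37 °C. Growth read at 630 nm.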
# E. coli E423-17 = assay: microbe, parasite or virus in culture; type: cell-based, Escherichia coli; details: E423-17; read-out: MIC E. coli E423-17
# From the text: (§2) The bacterial strains used include the Gram-positive strains Staphylococcus aureus USA300 LAC, S. epidermidis 1457, and Bacillus subtilis 168, as well as the Gram-negative isolates Escherichia coli K12 and Acinetobacter baumannii B2367-12. Additional, drug resistance strains include Gram-positive Enterococcus faecium V286-17 (VRE) and S. aureus M838-17 (MRSA) and Gram-negative E. coli E423-17, E. coli E416-17 (ampC), and P. aeruginosa E411-17. Bacteria were cultivated in tryptic soy broth (TSB) (BD Bioscience, MD).
# (§3) The antibacterial activity of peptides was evaluated using a standard broth microdilution protocol with minor modifications as described (Mishra, et al. (2012) J. Am. Chem. Soc., 134:12426-12429). In brief, logarithmic phase bacterial cultures (i.e., optical density at 600 nm≈0.5) were diluted to OD600 0.001 and partitioned into a 96-well polystyrene microplate at 90 μL per well. After treatment with 10 μL of peptide solutions two fold diluted to various concentrations, microplates were incubated at 37° C. overnight and read on a ChroMate® 4300 Microplate Reader at 630 nm (GMI, Ramsey, MN). […] To study the influence of medium conditions on the antimicrobial activity of peptides against S. aureus USA300, up to 200 mM sodium chloride (NaCl), 2 mM of calcium chloride, 5-10% of human serum, mouse plasma, fluid, or supernatants of tissue homogenates were included into the assays.
# (§4) The bacterial strains used include the Gram-positive bacteria methicillin-resistant Staphylococcus aureus USA300, Enterococcus faecium V286-17 (VRE), S. aureus M838-17 (MRSA) and Gram-negative bacteria E. coli E423-17, E416-7 (ampC), P. aeruginosa E411-17, PA01, K. pneumoniae E406-17, ATCC13883, and A. baumannii B26-16. Bacteria were cultivated in tryptic soy broth (TSB) from BD Bioscience.
# (§5) The antibacterial activity of peptides was evaluated using a standard broth microdilution protocol with minor modifications (Mishra, et al. (2017) Acta Biomater., 49:316-328). In brief, logarithmic phase bacterial cultures (i.e., optical density at 600 nm≈0.5) were diluted to 0.001 OD and aliquoted 90 μL per well into a 96-well polystyrene microplate. Added 10 μL peptides per well with various concentrations, plates were incubated at 37° C., overnight. Post incubation the plates are read at 630 nm using a ChroMate® Microplate Reader (GMI). […] To study the influence of medium conditions on the antimicrobial activity of peptides against S. aureus USA300 at different pHs (6.8, 7.2, and 8.0), 150 mM sodium chloride (NaCl), 5-10% of human serum, mouse plasma, and peritoneal fluid were included into the assays.
# E. faecium V286-17 (VRE) = assay: microbe, parasite or virus in culture; type: cell-based, Enterococcus faecium; details: V286-17 (VRE); for MIC: read-out: MIC E. faecium V286-17 (VRE)
# From the text: as §2, §3, §4, §5
# S. aureus USA300 [1] = assay: microbe, parasite or virus in culture; type: cell-based, Staphylococcus aureus
# Outline: (§6)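 Broth microdilution: log-phase cultures in tryptic soy broth diluted to OD600 0.001, exposed to two-fold diluted peptides at 37° C overnight, growth read at 630 nm. Medium effects on S. aureus USA300 tested with up to 200 mM NaCl, 2 mM CaCl2, 5-10% human serum, mouse plasma, fluids or tissue homogenate supernatants.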
# S. aureus M838-17 (MRSA) = assay: microbe, parasite or virus in culture; type: cell-based, Staphylococcus aureus; details: M838-17
# Outline: as §6
# Hemolytic assay = type: cell-based, human; details: human, human red blood cells, 2% (v/v)
# Outline: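 Washed hRBCs (2% v/v) exposed to peptide for 1 h at 37 °C, then centrifuged and hemoglobin in supernatant read at 545 nm. Lysis normalized to Triton X-100 (2% or 1%; 100%) and PBS (0%); HL50 is the peptide concentration giving 50% lysis, and CSI is HL50/MIC.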
# E. coli ampC E416-7 = type: cell-based, Escherichia coli; details: Table 7
# From the text: as §2, §3
# P. aeruginosa E411-17 = assay: microbe, parasite or virus in culture; type: cell-based, Pseudomonas aeruginosa; details: E411-17; for MIC: read-out: MIC P. aeruginosa E411-17
# From the text: as §2, §3, §4, §5
# K. pneumoniae E406-17 = assay: microbe, parasite or virus in culture; type: cell-based, Klebsiella pneumoniae; details: E406-17; for MIC: read-out: MIC K. pneumoniae E406-17
# Experimental: as §3, §4, §5
# K. pneumoniae ATCC 13883 = type: cell-based, Klebsiella pneumoniae; details: ATCC 13883
# Outline: as §1
# A. baumannii B26-16 = assay: microbe, parasite or virus in culture; type: cell-based, Acinetobacter baumannii; details: B26-16; read-out: MIC A. baumannii B26-16
# Experimental: as §4, §5
# S. aureus USA300 [2] = assay: Propidium iodide membrane permeation; type: cell-based, Staphylococcus aureus
# Experimental: The membrane permeation experiment was performed as described with minor modifications (Wang, et al. (2005) J. Biol. Chem., 280:5803-5811). Serially diluted 10× peptides (10 μL each well) were created in 96-well microtiter plates. Propidium iodide (2 μL) at a fixed concentration of 20 μM were added to each well followed by 88 μL of the S. aureus USA300 culture (a final OD600˜0.1 in TSB media). The plate was incubated at 37° C. with continuous shaking at 100 rpm in a FLUOstar® Omega (BMG LABTECH, Cary, NC) microplate reader. The fluorescence from the plate was read every 5 minutes for a total duration of 2 hours with an excitation and emission wavelengths of 584 nm and 620 nm, respectively. Plots were made using average values of duplicated experiments with MARS software.
# The experiment was performed as described previously with minor modifications (Mishra, et al. (2017) Acta Biomater., 49:316-328). Serially diluted 10× peptides (10 μL each well) were created in 96-well microtiter plates. Propidium iodide (2 μL) at a fixed concentration of 20 μM were added to each well followed by 88 μL of the S. aureus USA300 culture (a final OD600˜0.1 in TSB media or PBS). The plate was incubated at 37° C. with continuous shaking at 100 rpm in a FLUOstar® Omega (BMG LABTECH) microplate reader. The samples fluorescence was read at every 5 minutes for 24 cycles with an excitation and emission wavelengths of 584 nm and 620 nm, respectively. Plots generated using average values from the experiments using GraphPad Prism.
# [3] = USA300, read-out: MIC S. aureus USA300 (MRSA)
Structure (SMILES),MIC (E. coli E423-17),HC50 at 1 h (Hemolytic assay),MIC (P. aeruginosa E411-17),MIC (K. pneumoniae E406-17),MIC K. pneumoniae ATCC 13883 (K. pneumoniae ATCC 13883),MIC E. coli ATCC 25922 (E. coli ATCC 25922),MIC (E. faecium V286-17 (VRE)),MIC S. aureus USA 300 (S. aureus USA300 [1]; USA300),MIC (S. aureus USA300 [1]; [3]),MIC (A. baumannii B26-16),also measured
"CC(C)C[C@@H](NC(=O)[C@@H](CC(C)C)NC(=O)[C@@H](CCCCN)NC(=O)[C@@H](CC(C)C)NC(=O)CNC(=O)[C@@H](CC(C)C)NC(=O)[C@@H](CO)NC(=O)[C@@H](CC(C)C)NC(=O)[C@@H](CC(C)C)NC(=O)[C@@H](CC(C)C)NC(=O)[C@@H](CO)NC(=O)[C@@H](CC(C)C)NC(=O)CN)C(N)=O [DFT503d, GLSLLLSLGLKLL] (H-G[dL][dS][dL][dL][dL][dS][dL]G[dL][dK][dL][dL]-NH2; N-terminus and C-terminus assumed)",>50 µM,> 300 µM,>50 µM,>50 µM,–,–,–,–,–,–,"MIC PA (P. aeruginosa PAO1) (P. aeruginosa PAO1): >25 µM; MIC EC (E. coli ATCC 25922) (E. coli ATCC 25922): >25 µM; MIC E. faecium V286-17 (VRE) (E. faecium V286-17 (VRE)): 3.1 to 6.25 µM; MIC (S. aureus USA300 [1]; 1 mM Ca2+): 1.56 µM; MIC (S. aureus USA300 [1]; 2 mM Ca2+): 1.56 µM; MIC (S. aureus USA300 [1]; 50 mM NaCl): 1.56 µM; MIC (S. aureus USA300 [1]; 100 mM NaCl): 1.56 µM; MIC (S. aureus USA300 [1]; 200 mM NaCl): 1.56 µM; MIC (S. aureus USA300 [1]; No salts added, Table 6, by UV): 1.56 µM; MIC (S. aureus USA300 [1]; USA300): 3.1 µM; MIC SA (S. aureus USA300) (S. aureus USA300 [1]; USA300): 1.6 µM; MIC (S. aureus USA300 [1]; USA300, pH 6.8): 3.1 µM; MIC (S. aureus USA300 [1]; USA300, pH 7.4): 3.1 µM; MIC (S. aureus USA300 [1]; USA300, pH 8): 1.6 µM; MIC (S. aureus M838-17 (MRSA); read-out: MIC S. aureus M838-17 (MRSA)): 3.1 µM; MIC E. coli ampC E416-7 (E. coli ampC E416-7): >50 µM"
"CC[C@H](C)[C@H](NC(=O)[C@H](CCCCN)NC(=O)[C@H](CCCNC(=N)N)NC(=O)[C@H](CC(C)C)NC(=O)[C@H](Cc1c[nH]c2ccccc12)NC(=O)[C@H](Cc1c[nH]c2ccccc12)NC(=O)[C@@H](N)Cc1c[nH]c2ccccc12)C(=O)N[C@@H](Cc1c[nH]c2ccccc12)C(N)=O [WW291, WWWLRKIW] (H-WWWLRKIW-NH2; N-terminus and C-terminus assumed)",8 µM,–,>32 µM,≥32 µM,12.5 µM,6.2 to 12.5 µM,4 µM,3.1 µM,4 µM,16 µM,Propidium iodide membrane permeation (S. aureus USA300 [2]): permeate bacterial membranes
"CC[C@H](C)[C@H](NC(=O)[C@H](CCCCN)NC(=O)[C@@H](N)CCCNC(=N)N)C(=O)N[C@@H](Cc1c[nH]c2ccccc12)C(=O)N[C@@H](Cc1c[nH]c2ccccc12)C(=O)N[C@@H](Cc1c[nH]c2ccccc12)C(=O)N[C@@H](Cc1c[nH]c2ccccc12)C(=O)N[C@@H](CC(C)C)C(N)=O [WW295, RKIWWWWL] (H-RKIWWWWL-NH2; N-terminus and C-terminus assumed)",8 µM,57 µM,32 µM,16 µM,3.1 to 6.2 µM,6.2 µM,4 µM,3.1 to 6.2 µM,4 µM,8 µM,MIC S. aureus M838-17 (S. aureus M838-17 (MRSA)): 6.2 to 12.5 µM; MIC P. aeruginosa 411-17 (P. aeruginosa E411-17): >50 µM; MIC K. pneumonia 406-17 (K. pneumoniae E406-17): 12.5 µM
